# Where two headings read alike, the source gives them in different places.
# Key:
# fetal rat heart = test: Effects of homocysteine on fetal rats, heart slices (Example 7); format: in vivo, SD rats
# Protocol: In order to investigate an effect of homocysteine on the fetal heart, SD rats were selected, male and female rats were mated in a cage at a ratio of 1:1 overnight, a vaginal plug was checked the next morning, a day when the vaginal plug was found was regarded as day 0 of pregnancy, and pregnant mice were fed alone. A 1% homocysteine (HCY) solution was used, an injection volume was calculated according to an injection volume of 1 ml/100 g, a dose was (100 mg/kg/d), on the seventh day of pregnancy, the pregnant mice were intraperitoneally injected once a day until the 17th day of pregnancy and injected once on the 19th day of pregnancy, no fluid was withdrawn during each injection, the pregnant mice were subjected to chloral hydrate anesthesia on the 20th day of pregnancy, and a fetus was obtained by cesarean section. High-dose HCY model pregnant mice were investigated by the same method as above, the dose was 200 mg/kg/d and the other conditions were the same. Fetal rats were dissected, the heart was taken and sliced for observation, and the results were as follows.
# zebrafish embryos [1] = conditions: in vivo
# Protocol: A table was listed below for details.
# 5-Selected concentrations of methyltetrahydrofolate in the experiment were recorded in the table.
# zebrafish embryos [2] = tested on: zebrafish embryos
# Protocol: Transgenic zebrafish (fli-1:EGFP) were from the Model Animal Research Center of Nanjing University. Adult zebrafish aged less than 1 year were used for experiment and fed at a water pH value of 7±0.2, a temperature around 28° C. and a ratio of illumination to darkness of 14 h:10 h, and with Artemia salina eggs twice a day. Three zebrafish, one female, two males, were placed in a spawning box the night before and eggs were collected the next morning. Fish eggs were placed in an embryo culture medium (prepared with 0.2 g/L of sea salt) and cultured at 28° C.
# Zebrafish embryos were cultured in 24-well plates with 10 embryos per well at 2 hpf in a dosing manner, drug solutions of the above concentrations in the table were separately added, termination was conducted at 8 hpf, and the embryos were washed and transferred to an egg solution for continuous culture to 72 hpf. Dead embryos were cleaned up in time. Each experiment was conducted in triplicate.
# A phenotype of malformation was observed, the number of all abnormal zebrafish where the malformation was present was recorded and a malformation rate and a rescue rate of each group were calculated. Morphological defects, a heart rate, cardiac morphology and other indicators were observed and evaluated by an SMZ745T inverted stereomicroscope.
# zebrafish embryos [3] = conditions: 30 mM HCHO + 10 mM L-5-MTHF-Ca
# zebrafish embryos [4] = test: Teratogenic effect of folic acid on zebrafish embryos (Example 3)
# Protocol: (§1) Transgenic zebrafish (fli-1:EGFP) were from the Model Animal Research Center of Nanjing University. Adult zebrafish aged less than 1 were used for experiment and fed at a water pH value of 7±0.2, a temperature around 28° C. and a ratio of illumination to darkness of 14 h:10 h, and with Artemia salina eggs twice a day. Three zebrafish, one female, two males, were placed in a spawning box the night before and eggs were collected the next morning. Fish eggs were placed in an embryo culture medium (prepared with 0.2 g/L of sea salt) and cultured at 28° C. […] Dead embryos were cleaned up in time. A phenotype of malformation was observed, the number of all abnormal zebrafish where the malformation was present was recorded and a malformation rate and a rescue rate of each group were calculated. Morphological defects, a heart rate, cardiac morphology and other indicators were observed and evaluated by an SMZ745T inverted stereomicroscope.
# zebrafish embryos [5] = conditions: 6 mM FA + 10 mM L-5-MTHF-Ca
# Protocol: Transgenic zebrafish (fli-1:EGFP) were from the Model Animal Research Center of Nanjing University. Adult zebrafish aged less than 1 were used for experiment and fed at a water pH value of 7±0.2, a temperature around 28° C. and a ratio of illumination to darkness of 14 h:10 h, and with Artemia salina eggs twice a day. Three zebrafish, one female, two males, were placed in a spawning box the night before and eggs were collected the next morning. Fish eggs were placed in an embryo culture medium (prepared with 0.2 g/L of sea salt) and cultured at 28° C. […] Dead embryos were cleaned up in time. Each experiment was conducted in triplicate. […] A phenotype of malformation was observed, the number of all abnormal zebrafish where the malformation was present was recorded and a malformation rate and a rescue rate of each group were calculated. Morphological defects, a heart rate, cardiac morphology and other indicators were observed and evaluated by an SMZ745T inverted stereomicroscope.
# zebrafish embryos [6] = tested on: zebrafish embryos; remark: listed apart in the source
# Protocol: as §1
# [7] = tested on: transcription factors (Nkx2.5, amhc, vmhc, hand2, has2, mef2a, mef2c, bmp2b, ephrinB2, ephB4) in zebrafish embryos; test: qRT-PCR expression of transcription factors during development of zebrafish embryos (Example 4); format: in vivo; conditions: 8 mM L-5-MTHF-Ca, 24 and 48 hpf
# Protocol: In order to explore an effect of folic acid on epigenetics during development of the zebrafish embryos, the zebrafish embryos at different developmental stages were collected for testing. […] A fluorescent dye SYBR Green was used in the qRT-PCR experiment. The qRT-PCR was conducted according to the instructions of an SYBR Green qPCR Master Mix kit and a detection was conducted on an ABI (HT 7900) PCR instrument. […] An expression of β-actin was used as an internal reference and relative expression levels of other genes were calculated by a ΔΔCt method.
# zebrafish embryos [8] = tested on: zebrafish embryos; remark: listed apart in the source
# Protocol: Each experiment was conducted in triplicate. Zebrafish embryos were administrated at 2 h post fertilization (2 hpf) and termination was conducted at 72 hpf. The number of deaths in each group was recorded at 8, 24, 48 and 72 hpf. No food was fed during a dosing period, and the dead embryos were cleaned up in time.
# heart of fetal mice = test: Effects of folic acid and 5-methyltetrahydrofolate on heart development of fetal/neonatal mice, histology (Example 10)
# Protocol: 75 7-week-old female C57BL/6J mice and 25 8-week-old male C57BL/6J mice were provided by Shanghai Lingchang Biotechnology Co., Ltd. with a certificate number of SCXK (Shanghai) 2018-0003. […] The female mice were randomly divided into 5 groups according to body weight: a solvent control group, a folic acid (151.66 μg/kg) group, a folic acid (303.32 μg/kg) group, a calcium 5-methyltetrahydrofolate (converted to folic acid, 151.66 μg/kg) group and a calcium 5-methyl tetrahydrofolate (converted to folic acid, 303.32 μg/kg) group. 1.1275 unit mass of the calcium 5-methyltetrahydrofolate equaled to 1 unit mass of the folic acid.
# 15 mice were in each group and numbered by a toe clipping method. The mice were intragastrically administrated once a day on the second day after grouping. One week after the pre-administration, male and female mice were caged at a ratio of […], a vaginal plug was observed every day from the next day, and a day when the vaginal plug was seen was recorded as day 0.5 of pregnancy. After 14 days of caging, the female mice stopped the administration, the male mice were removed, and the pregnant female mice were fed alone until litter.
# After the detection, thoracic and abdominal cavities of the mice were dissected, cardiac morphology and beating were observed under a stereoscopic microscope (SMZ168, Motic, Xiamen, Fujian, China), and photographs and video recordings were taken (Motic Image Plus 3.0, Motic, Xiamen, Fujian, China). The mice were sacrificed and the hearts, the livers, the kidneys and the lungs were harvested. The hearts and the livers of the neonatal mice were selected from each group and fixed with 4% paraformaldehyde, the fixed hearts and livers were embedded in paraffin, the embedded hearts and livers were sliced and the slices were stained with H&E. A half of the other tissues were immersed in RNA later for fixation and the other half were directly immersed in liquid nitrogen and frozen for a subsequent experiment.
# 1-day-old neonatal mice were sacrificed, the hearts were taken and fixed with 4% paraformaldehyde, the fixed hearts were embedded in paraffin, the embedded hearts were sliced, the slices were stained with H&E and pictures were taken under a normal microscope.
# [9] = Group D: calcium 5-methyltetrahydrofolate (converted to folic acid, 151.66 μg/kg) intragastric
# [10] = Group E: calcium 5-methyltetrahydrofolate (converted to folic acid, 303.32 μg/kg) intragastric
compound,measurement,setting,value
"N[C@@H](CCS)C(=O)O [HCY, homocysteine]",fetal rat heart histology,fetal rat heart; high-dose HCY 200 mg/kg/d intraperitoneal to pregnant rats,led to red staining of muscle cytoplasm of the fetal rats
same,fetal rat heart histology,fetal rat heart; low-dose HCY 100 mg/kg/d intraperitoneal to pregnant rats,led to widening of myocardial trabeculae in fetal rats and atria was filled with red blood cells
Calcium 5-Methyltetrahydrofolate [L-5-MTHF-Ca],"10 s heart rate (48 hpf), body length and malformation (72 hpf), rescue",zebrafish embryos [1],"could rescue malformed phenotypes of the bradycardia, the shortened body length and abnormally curved bodies"
same,rescue of embryonic development malformations,zebrafish embryos [1],could rescue embryonic development malformations induced by 2 and 4 mM Pb(NO3)2
same,"survival rate of embryos, rescue",zebrafish embryos [1],did not rescue an effect of the 2 and 4 mM Pb(NO3)2 on a survival rate of the embryos
same,embryo phenotype,zebrafish embryos [1]; zebrafish,"did not lead to obvious embryonic development delay, malformation and death"
same,"pericardium edema and 10 s heart rate (48 hpf), body length (72 hpf), rescue",zebrafish embryos [1]; zebrafish,"could rescue malformed phenotypes of the pericardium edema, the bradycardia and the shortened body length of the zebrafish to a certain extent"
same,"rate of pericardium edema, rescue","zebrafish embryos [2]; 0.6% EtOH + 10 mM L-5-MTHF-Ca, 48 hpf",could reduce a rate of pericardium edema
same,"heart rate, rescue","zebrafish embryos [2]; 0.9% and […] EtOH + 10 mM L-5-MTHF-Ca, 48 hpf",could relieve bradycardia
same,"survival rate, rescue",zebrafish embryos [2]; […] EtOH + 10 mM L-5-MTHF-Ca,could rescue the survival rate
same,"pericardium edema, rescue","zebrafish embryos [2]; […] EtOH + 10 mM L-5-MTHF-Ca, 48 hpf",had no effect on relieving pericardium edema
same,"lower intestinal network blood vessels, rescue","zebrafish embryos [2]; […] EtOH + 10 mM L-5-MTHF-Ca, 72 hpf",failed to ameliorate the defect
same,"body length, rescue",zebrafish embryos [2]; high concentration ([…]) of EtOH + 10 mM L-5-MTHF-Ca,relieve a shortened body length
same,"pericardium edema and heart rate (48 hpf), body length (72 hpf)",zebrafish embryos [3],"had no effect on the pericardium edema, the heart rate and the body length of the zebrafish"
same,"survival rate of embryos, rescue",zebrafish embryos [3],can rescue an effect of the 30 mM HCHO on a survival rate of the embryos
same,embryo development,zebrafish embryos [3]; 8 hpf,delayed development of the zebrafish embryos
same,heart shape and lower intestinal network blood vessels,zebrafish embryos [3]; 72 hpf,normal heart shape and normal development of lower intestinal network blood vessels
same,survival rate of zebrafish,"zebrafish embryos [4]; 10 mM L-5-MTHF-Ca in 20 mM NaHCO3, 2-72 hpf",did not affect the survival rate of zebrafish
same,embryo coverage,"zebrafish embryos [4]; 10 mM L-5-MTHF-Ca, 8 hpf",covered completely
same,heart shape and lower intestinal network blood vessels,"zebrafish embryos [4]; 10 mM L-5-MTHF-Ca, 72 hpf",normal heart shape and normal development of lower intestinal network blood vessels
same,"10 s heart rate (48 hpf) and body length (72 hpf), rescue",zebrafish embryos [5],could rescue malformed phenotypes of the bradycardia and the shortened body length
same,"survival rate of embryos, rescue",zebrafish embryos [5],can rescue an effect of the 6 mM FA on a survival rate of the embryos
same,embryo development,zebrafish embryos [5]; 8 hpf,delayed development of the zebrafish embryos
same,embryo phenotype,zebrafish embryos [5]; 24 hpf,alleviated the malformation
same,embryo phenotype,zebrafish embryos [5]; 48 hpf,"led to pericardium edema, dyspigmentation, and intersegmental vascular hypoplasia of zebrafish"
same,"pericardium edema, rescue",zebrafish embryos [5]; 48 hpf,could not rescue the pericardium edema
same,embryo phenotype,zebrafish embryos [5]; 72 hpf,led to developmental disorders of lower intestinal network blood vessels of the zebrafish
same,"pericardium edema and 10 s heart rate (48 hpf), body length (72 hpf), rescue",zebrafish embryos [6]; 1.5 mM MTX + 10 mM L-5-MTHF-Ca,"could rescue malformed phenotypes of the pericardium edema, the bradycardia and the shortened body length"
same,rescue of embryonic development malformations,zebrafish embryos [6]; 1.5 mM MTX + 10 mM L-5-MTHF-Ca,could rescue embryonic development malformations induced by 1.5 mM MTX
same,"survival rate of embryos, rescue",zebrafish embryos [6]; 1.5 mM MTX + 10 mM L-5-MTHF-Ca,no significant difference from that of a control group
same,Malformation rate,zebrafish embryos [6]; 1.5 mM MTX after adding L-5-MTHF-Ca (10 mM),10%
same,expressions of the various genes vs normal control,[7],did not affect the expressions of the various genes
same,embryo survival rate,"zebrafish embryos [8]; 10 mM L-5-MTHF-Ca, dosed 2 hpf to 72 hpf",did not affect an embryo survival rate
same,heart rate of zebrafish embryos,"zebrafish embryos [8]; 10 mM, 48 hpf, vs control group",no difference in the heart rate
same,heart shape and lower intestinal network blood vessels,"zebrafish embryos [8]; 10 mM, 72 hpf",the heart in each group had a normal shape and the lower intestinal network blood vessels developed normally
same,body length of zebrafish embryos,"zebrafish embryos [8]; 10 mM, 72 hpf, vs control group",no difference
same,congenital heart disease in fetal mice,heart of fetal mice; 5-methyltetrahydrofolate group,no congenital heart disease is found
same,Development delay,heart of fetal mice; [9],0
same,Malformation cases,heart of fetal mice; [9],0
same,Sparse myocardial trabeculae,heart of fetal mice; [9],0
same,Ventricular defects/septal defects,heart of fetal mice; [9],0
same,Development delay,heart of fetal mice; [10],0
same,Malformation cases,heart of fetal mice; [10],0
same,Sparse myocardial trabeculae,heart of fetal mice; [10],0
same,Ventricular defects/septal defects,heart of fetal mice; [10],0
same,heart slices (H&E) of 1-day-old neonatal mice,heart of fetal mice; low-dose and high-dose methyltetrahydrofolate groups,had intact myocardium

# Source: patent publication US20230043678A1, “USE OF 5-METHYLTETRAHYDROFOLATE” (priority 2019, published 2023)
